One data set concerns the target factor Xa (Homo sapiens, UniProt P00742). The data set can be described thus: Inhibition of factor Xa (FXa-IC50). It is filed as biochemical. The text has this:
The inhibition of factor Xa by the compounds according to the invention and the measurement of the anticoagulant and antithrombotic activity can be determined by conventional in-vitro or in-vivo methods. A suitable method is described, for example, by J. Hauptmann et al. in Thrombosis and Haemostasis 1990, 63, 220-223.
The inhibition of factor Xa can be measured, for example by the method of T. Hara et al. in Thromb. Haemostas. 1994, 71, 314-319.

The target in another data set is TF/FVIIa (Homo sapiens, UniProt P08709). As to the kind of experiment: Inhibition of TF/factor VIIa (TF/FVIIa-IC50). It is filed as biochemical. The text has this:
The inhibition of factor VIIa by the compounds according to the invention and the measurement of the anticoagulant and antithrombotic activity can be determined by conventional in-vitro or in-vivo methods. A conventional method for the measurement of the inhibition of factor VIIa is described, for example, by H. F. Ronning et al. in Thrombosis Research 1996, 84, 73-81.

Sequence of TF/FVIIa (P08709 213-466 limits assumed): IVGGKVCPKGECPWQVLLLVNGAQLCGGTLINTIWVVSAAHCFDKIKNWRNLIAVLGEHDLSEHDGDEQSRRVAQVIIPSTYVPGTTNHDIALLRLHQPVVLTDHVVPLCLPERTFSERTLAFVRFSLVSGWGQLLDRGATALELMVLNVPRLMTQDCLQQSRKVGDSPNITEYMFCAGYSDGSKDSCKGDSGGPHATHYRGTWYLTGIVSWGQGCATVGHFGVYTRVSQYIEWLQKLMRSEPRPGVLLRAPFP
Sequence of TF/FVIIa (P08709 61-212 limits assumed): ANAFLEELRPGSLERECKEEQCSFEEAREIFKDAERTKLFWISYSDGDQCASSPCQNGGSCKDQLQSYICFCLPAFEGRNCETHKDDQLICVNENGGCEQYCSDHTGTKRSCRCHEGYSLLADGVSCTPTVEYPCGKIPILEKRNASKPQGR
Sequence of TF/FVIIa (P13726 33-295 partner): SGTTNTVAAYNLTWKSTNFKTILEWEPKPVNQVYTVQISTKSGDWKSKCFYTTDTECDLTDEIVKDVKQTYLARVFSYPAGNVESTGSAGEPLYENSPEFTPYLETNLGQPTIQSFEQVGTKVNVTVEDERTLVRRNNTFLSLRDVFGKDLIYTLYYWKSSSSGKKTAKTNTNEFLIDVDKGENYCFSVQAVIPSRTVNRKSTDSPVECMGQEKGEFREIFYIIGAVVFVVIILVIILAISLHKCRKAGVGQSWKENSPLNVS
Sequence of factor Xa (P00742 235-488 limits assumed): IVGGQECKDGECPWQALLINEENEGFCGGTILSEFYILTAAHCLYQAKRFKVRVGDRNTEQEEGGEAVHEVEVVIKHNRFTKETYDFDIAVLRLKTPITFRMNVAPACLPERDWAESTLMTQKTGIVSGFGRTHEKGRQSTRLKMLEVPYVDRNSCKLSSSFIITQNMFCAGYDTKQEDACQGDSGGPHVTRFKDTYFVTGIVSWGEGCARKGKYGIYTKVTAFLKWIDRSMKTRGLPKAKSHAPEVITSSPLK
Sequence of factor Xa (P00742 41-179 limits assumed): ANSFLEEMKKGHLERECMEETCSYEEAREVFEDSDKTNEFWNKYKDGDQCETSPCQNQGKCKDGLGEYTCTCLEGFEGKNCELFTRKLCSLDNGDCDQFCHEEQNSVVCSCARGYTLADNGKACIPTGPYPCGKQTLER

For `O=C(Cc1ccc2[nH]c(-c3ccc(Cl)s3)nc2c1)Nc1ccc(N2CCOCC2=O)cc1` [AA, 2-[2-(5-chlorothiophen-2-yl)-1H-benzimidazol-5-yl]-N-[4-(3-oxomorpholin-4-yl)phenyl]acetamide], the melting point was 200 °C (dec.). The compound also yielded an IC50 against factor Xa of 230 nM. Moreover, half-maximal inhibition against TF/FVIIa (IC50) was put at 190 nM.

`Cc1cc(NC(=O)Cc2ccc3[nH]c(-c4ccc(Cl)s4)nc3c2)ccc1N1CCOCC1=O` [AB, 2-[2-(5-chlorothiophen-2-yl)-1H-benzimidazol-5-yl]-N-[3-methyl-4-(3-oxomorpholin-4-yl)phenyl]acetamide]: the half-maximal inhibitory concentration (IC50) at factor Xa amounted to 120 nM; on TF/FVIIa, 130 nM.

Take `O=C(Cc1ccc2[nH]c(-c3ccc(Cl)s3)nc2c1)Nc1ccc(-n2ccccc2=O)cc1` [AC, 2-[2-(5-chlorothiophen-2-yl)-1H-benzimidazol-5-yl]-N-[4-(2-oxopyridin-1-yl)phenyl]acetamide]: the IC50 stood at 180 nM against factor Xa and 130 nM at TF/FVIIa.

The values are drawn from US7566789B2, “Benzimidazole derivatives” (Merck Patent GmbH, priority 2002, dated 2009).
